# Read-outs that look alike come from different tables or passages of the source.
# Tests used:
# [1] = tested on: Salmonella paratyphi 1015; test: MIC; type: cell-based; conditions: Salmonella enterica
# Experimental: (§1) In accordance with the method as disclosed in Chemotherapy, Vol. 29, pages 76-79 (1981), MIC (μg/ml) of each test compound was measured.
# [2] = tested on: Escherichia coli NIHJ JC-2; test: MIC; type: cell-based; conditions: NIHJJC2, gram negative
# Experimental: as §1
# [3] = tested on: Klebsiella pneumoniae PCI-602; test: MIC; type: cell-based; conditions: PCI602, gram negative
# Experimental: as §1
# [4] = tested on: Staphylococcus epidermidis; test: MIC; type: cell-based; conditions: gram positive
# Experimental: as §1
# [5] = tested on: Bacillus subtilis ATCC 6633; test: MIC; type: cell-based; conditions: ATCC6633, gram positive
# Experimental: as §1
# [6] = tested on: Staphylococcus aureus FDA 209P JC-1; test: MIC; type: cell-based; conditions: FDA209P, gram positive
# Experimental: as §1
# Proteus Vulgaris HX-19 = test: MIC; type: cell-based; conditions: gram negative
# Experimental: as §1
# [7] = tested on: Pseudomonas aeruginosa IFO 3445; test: MIC; type: cell-based
# Experimental: as §1
# [8] = tested on: Serratia marcescens IAM 1184; test: MIC; type: cell-based; conditions: IAM1184, gram negative
# Experimental: as §1
# [9] = Bioavailability in oral administration in mice; type: in vivo, ddY-strain male mice; conditions: mouse
# Experimental: Each of the test compounds was suspended in a 0.5% sodium carboxymethylcellulose to prepare a suspension having a concentration of 5 mg/ml of the compound.
# ddY-strain male mice (5 week old, weighing 22 to 25 g, three per group) were used. The suspension was orally administered to mice fasted for 16 hours. The dose of the test compound was adjusted to 50 mg/kg of body weight of animal. 30, 60, 120, and 240 minutes after the administration of the test compound, blood was taken out from each mouse, and the blood sample thus obtained was centrifuged at 3,000 rpm for 20 minutes to obtain a serum sample.
# ddY-strain male mice [10] = test: in vivo; conditions: mice, p.o., one week, Weil method; 10080 min
# Experimental: (§2) The acute toxicities in oral administration and intravenous injection of the test compounds were tested as follows:
# (§3) In oral administration: To ddY-strain male mice (weighing 20-25 g, five per group) was administered orally a suspension of each test compound in a 0.5% sodium carboxymethylcellulose. […] J. Biometric Soc., 8, 249 (1959)].
# [11] = Bioavailability in oral administration in rats; type: in vivo, Wistar-strain male rats; parameters: AUC at 4 h: concentration or dose not given beside the values; conditions: rat
# Experimental: Each of the test compounds was suspended in a 0.5% sodium carboxymethylcellulose to prepare a suspension having a concentration of 5 mg/ml of the test compound.
# Wistar-strain male rats (weighing 160 g ±20 g, three per group) were used. The suspension was orally administered to rats fasted 16 hours. 30, 60, 120, and 240 minutes after the administration of the test compound, blood was taken out from the rats. The blood was centrifuged at 3,000 rpm for 20 minutes to obtain a plasma sample. In the same manner as described in Experiment 2, the concentration (μg/ml) of test compound in plasma and also AUC (μg.hr/ml) were measured.
# ddY-strain male mice [12] = test: in vivo; type: in vivo; conditions: mice, i.v., one week, Weil method; 10080 min
# Experimental: as §2
# (§4) In intravenous administration: Each of the test compounds was dissolved in 1N aqueous sodium hydroxide solution and thereto was added a phosphoric acid-saline buffer (pH 7.2) to prepare a test solution. The test solution was intravenously injected to ddy-strain male mice (weighing 20-25 g, five per group). One week after the administration of the test solution, the LD50 was determined in accordance with Weil method.
# ddY-strain male mice [13] = conditions: p.o.; data reported at Nippon Kagakuryohogakkai 28th Meeting (1980, Tokyo); 10080 min; cited from earlier work
# ddY-strain male mice [14] = conditions: i.v.; data reported at Nippon Kagakuryohogakkai 28th Meeting (1980, Tokyo); 10080 min; cited from earlier work
# in vivo [15] = conditions: mouse, in vivo, po
# Experimental: as §2, §3
# in vivo [16] = type: in vivo; conditions: mouse, in vivo, iv
# Experimental: as §2, §4
# [17] = IFO3445, gram negative, read-out: MIC
# [18] = serum, mice, oral 50 mg/kg, after 30 min., read-out: Concentration in serum
# [19] = serum, mice, oral 50 mg/kg, after 60 min., read-out: Concentration in serum
# [20] = serum, mice, oral 50 mg/kg, after 120 min., read-out: Concentration in serum
# [21] = serum, mice, oral 50 mg/kg, after 240 min., read-out: Concentration in serum
# [22] = mice, oral 50 mg/kg, serum, 1-4 hrs., read-out: AUC
# [23] = plasma, rats, oral, after 30 min., read-out: Concentration in plasma
# [24] = plasma, rats, oral, after 60 min., read-out: Concentration in plasma
# [25] = plasma, rats, oral, after 120 min., read-out: Concentration in plasma
# [26] = plasma, rats, oral, after 240 min., read-out: Concentration in plasma
# [27] = rats, oral, plasma, 1-4 hrs., read-out: AUC
Structure (SMILES),MIC [1],MIC [2],MIC [3],MIC [4],MIC [5],MIC [6],MIC (Proteus Vulgaris HX-19),"MIC [7, 17]",MIC [8],"concentration at 0.5 h [9, 18]","concentration at 1 h [9, 19]","concentration at 2 h [9, 20]","concentration at 4 h [9, 21]","AUC at 4 h [9, 22]","concentration at 0.5 h [11, 23]","concentration at 1 h [11, 24]","concentration at 2 h [11, 25]","concentration at 4 h [11, 26]","AUC at 4 h [11, 27]",also measured
"CCn1cc(C(=O)O)c(=O)c2cc(F)c(N3CCN(C)CC3)cc21 [B, 1-ethyl-1,4-dihydro-6-fluoro-7-[1-(4-methylpiperazinyl)]-4-oxoquinoline-3carboxylic acid]",0.1 µg/mL,0.39 µg/mL,0.1 µg/mL,0.78 µg/mL,0.2 µg/mL,0.39 µg/mL,0.1 µg/mL,1.56 µg/mL,,,,,,,,,,,,
"CCn1cc(C(=O)O)c(=O)c2cc(F)c(N3CCNCC3)c(F)c21 [C, 1-ethyl-6,8-difluoro-1,4-dihydro-4-oxo-7-(1-piperazinyl)quinoline-3-carboxylic acid]",0.1 µg/mL,0.2 µg/mL,0.1 µg/mL,3.13 µg/mL,0.39 µg/mL,0.39 µg/mL,0.1 µg/mL,0.78 µg/mL,0.78 µg/mL,,,,,,,,,,,"AUC at 4 h ([9]; in vivo, po, 50 mg/kg): 12400 ng·h/mL; concentration at 0.5 h ([9]; in vivo, po, 50 mg/kg): 6260 ± 1570 ng/mL; concentration at 1 h ([9]; in vivo, po, 50 mg/kg): 3510 ± 1290 ng/mL; concentration at 2 h ([9]; in vivo, po, 50 mg/kg): 3410 ± 670 ng/mL; concentration at 4 h ([9]; in vivo, po, 50 mg/kg): 1530 ± 270 ng/mL; LD50 (ddY-strain male mice [10]): 1,072 mg/kg; AUC at 4 h ([11]; in vivo, po): 26000 ng·h/mL; concentration at 0.5 h ([11]; in vivo, po): 11700 ± 1100 ng/mL; concentration at 1 h ([11]; in vivo, po): 12300 ± 800 ng/mL; concentration at 2 h ([11]; in vivo, po): 6400 ± 300 ng/mL; concentration at 4 h ([11]; in vivo, po): 2000 ± 1800 ng/mL; LD50 (ddY-strain male mice [12]): 193 mg/kg"
"CCn1cc(C(=O)O)c(=O)c2cc(F)c(N3CCNCC3)cc21 [Compound A, 1-ethyl-1,4-dihydro-6-fluoro-4-oxo-7-(1-piperazinyl)quinoline-3-carboxylicacid]",0.1 µg/mL,0.39 µg/mL,0.1 µg/mL,3.13 µg/mL,0.39 µg/mL,0.39 µg/mL,0.1 µg/mL,,0.39 µg/mL,1050 ± 240 ng/mL,690 ± 70 ng/mL,400 ± 50 ng/mL,360 ± 30 ng/mL,2000 ng·h/mL,1810 ± 140 ng/mL,1190 ± 20 ng/mL,630 ± 110 ng/mL,250 ± 10 ng/mL,2990 ng·h/mL,"LD50 (ddY-strain male mice [13]): > 4,000 mg/kg; MIC ([7]; IFO3445): 1.56 µg/mL; LD50 (ddY-strain male mice [14]): 220 mg/kg"
"CCn1cc(C(=O)O)c(=O)c2cc(F)c(N3CCN(C)CC3)c(F)c21 [D, 1-ethyl-6,8-difluoro-1,4-dihydro-7-[1-(4-methylpiperazinyl)]-4-oxoquinoline-3-carboxylic acid]",0.1 µg/mL,0.2 µg/mL,0.1 µg/mL,1.56 µg/mL,0.2 µg/mL,0.78 µg/mL,0.05 µg/mL,1.56 µg/mL,0.78 µg/mL,14400 ± 800 ng/mL,11500 ± 900 ng/mL,6700 ± 600 ng/mL,3400 ± 400 ng/mL,29300 ng·h/mL,22600 ± 4500 ng/mL,24000 ± 2300 ng/mL,14600 ± 1100 ng/mL,9300 ± 100 ng/mL,60400 ng·h/mL,LD50 at 168 h (in vivo [15]): 536 mg/kg; LD50 at 168 h (in vivo [16]): 196 mg/kg

# From patent US4530930A, “Antimicrobial 1-ethyl-6,8-difluoro-1,4-dihydro-7-(1-imidazolyl)-4-oxoquinoline-3-carbo xylic acid derivatives” (Kanebo, Ltd., priority 1982, dated 1985)
